{"source": "paper PMC12196476", "about": "“New Nitrogen-, Oxygen-, and Sulfur-Containing Heterocyclic Compounds as Anti-Colon Cancer Agents: Synthesis, Multitargeted Evaluations, Molecular Docking Simulations and ADMET Predictions” (Pharmaceuticals, 2025)", "key": {"[1]": {"system": "LoVo colon carcinoma cells", "assay": "Cell viability, LDH release assay, LoVo", "conditions": "Homo sapiens, LoVo, 48 h"}, "LoVo cells": {"system": "LoVo cells", "assay": "Annexin V-FITC/PI apoptosis assay, LoVo", "type": "cell-based, human", "conditions": "30 µg/mL, 48 h, Figure 3B plot", "protocol": "Translocation of phosphatidylserine (PS) residues on the cell surface is an early apoptosis indicator, detectable through flow cytometric analysis and using double staining with propidium iodide (PI) dye and fluorescein isothiocyanate (FITC)-conjugated Annexin V (Annexin V-FITC). […]\nμg/mL for 48 h. […]\nS3.2.6. Annexin-V-FITC assay. […]\ntreatment with compound 3d. HCT-116 and LoVo cells were treated with vehicle (DMSO) and 3d […]\nin Annexin-V binding buffer (BioVision Research Products, USA). The cells were then stained with Annexin V-FITC and propidium iodide (PI). Using the FITC signal detector (usually FL1) for […]\nof stained cancerous cells were determined. […]"}, "[2]": {"system": "Bax, Bcl-2 and Casp-3 genes expression in LoVo cells", "assay": "qRT-PCR of Bax, Bcl-2 and Casp-3 gene expression, LoVo", "type": "cell-based, human", "conditions": "30 µg/mL, 48 h", "protocol": "To investigate molecular events downstream of ROS generation, we evaluated mRNA expression levels of key regulators of mitochondrial apoptosis—Bax and Bcl-2—using qRT-PCR. […] As a result, the Bax/Bcl-2 ratios were calculated to be 12.63 in LoVo cells and 8.71 in HCT-116 cells, reflecting a pronounced pro-apoptotic shift. This alteration in the Bax/Bcl-2 ratio strongly supports the activation of the mitochondrial apoptotic pathway.\nTo confirm activation of the execution phase of apoptosis, Casp-3 mRNA levels were evaluated by qRT-PCR.\nThe expression levels of these genes were determined using a quantitative real-time PCR technique. […]\nS3.2.9. Quantification of the Expression Levels of Bax, Bcl-2 and Caspase-3 Genes\nHuman colon cancer cell lines (HCT-116 and LoVo) were cultured for 24 h in a 25 mL flask at\na density of 1 * 10^6 cells/flask as described in section S3.2.4. Cells were treated with 30 µg/mL\nof compound 3d in 2 mL of fresh medium containing 1% FBS, or with 0.25 % DMSO as a\nnegative control, for 48 h. Afterwards, cells were washed with ice-cold phosphate-buffered\nsaline (PBS) and adherent cells were detached using trypsin solution.\nTable S7 lists primers amplifying 100-200 bp of Bax, Bcl-2 and Caspase-3 genes. These primers\nwere designed using primer blast software (https://www.ncbi.nlm.nih.gov/tools/primer-\nTable S7. Primer sequences for Bax, Bcl-2, Caspase-3, and GAPDH (control)\nGene Primer sequence (5’ to 3’)\nBcl-2 F 5’-[…] -3’,\nCaspase 3 F 5’- […]-3’,\nGAPDH F 5’- […]-3’\n• Reverse-Transcription PCR (RT-PCR)\nThe total RNA was extracted from untreated and treated cells using the RNeasy Mini Kit\n(Qiagen, DE). A Nanodrop 8000 spectrophotometer (Thermo Fisher Scientific, USA) was\nused to check the RNA purity and quality. The Hyperscript Kit (GeneAll, KR) and random\nhexamers (GeneAll, KR) were used as described in the manufacturer’s protocol to reverse-\ntranscript 1µg of RNA from each sample into cDNA.\n• Quantitative real-time PCR\nThe mRNA expression of Bax, Bcl-2, and Caspase-3 were measured using QuantStudio\n7Flex Detection System (Applied Biosystems, USA). The iScript One-Step RT-PCR Kit with\nSYBR Green (Cat no: 170-8892; Bio-Rad, CA, USA) was used to carry out the reactions for\nthe synthesis of cDNA. Each cDNA sample (5 µl) was added in a 20 µL PCR mixture"}, "[3]": {"conditions": "relative to untreated controls, normalized to GAPDH"}}, "data": [{"compound": "COc1cc(/C=N/c2ncnc3sc4c(c23)CCCC4)cc(OC)c1OC", "note": "[Compound 3d, (E)-N-(5,6,7,8-Tetrahydrobenzo[4,5]thieno[2,3-d]pyrimidin-4-yl)-1-(3,4,5-trimethoxyphenyl)methanimine]", "values": [{"measurement": "viability at 100 µg/mL", "setting": "[1]; read-out: Mean % of viable cells ± SD, LoVo, 100 µg/mL, 48 h, LDH release assay", "result": "< 29", "unit": "%"}, {"measurement": "IC50", "setting": "[1]; read-out: Mean IC50 Values in µM ± SD, LoVo cells", "result": 157, "unit": "µM"}, {"measurement": "Necrotic population (Annexin-V−/PI+), LoVo", "setting": "LoVo cells", "result": 4.14, "unit": "%"}, {"measurement": "Late apoptotic cells (both Annexin-V and PI positive), LoVo", "setting": "LoVo cells; control 0.09%", "result": 9.92, "unit": "%"}, {"measurement": "Early apoptotic cells (Annexin V-FITC positive and PI negative), LoVo", "setting": "LoVo cells; control 0.44%", "result": 17.12, "unit": "%"}, {"measurement": "Bax/Bcl-2 ratio, LoVo cells", "setting": "[2]", "result": 12.63}, {"measurement": "Bax mRNA expression, fold of control (LoVo)", "setting": "[2]; [3]", "result": "3.03 ± 0.41", "unit": "fold"}, {"measurement": "Bcl-2 mRNA expression, fold of control (LoVo)", "setting": "[2]; [3]", "result": "0.24 ± 0.03", "unit": "fold"}, {"measurement": "Casp-3 mRNA expression, fold of control (LoVo)", "setting": "[2]; [3]", "result": "5.35 ± 0.33", "unit": "fold"}]}]}
